Assays:
S1P1 receptor = S1P1 receptor (Homo sapiens, UniProt P21453); assay: 35S-GTPγS binding, membranes from CHO cells expressing S1P1; assay type: biochemical; conditions: CHO cell membranes expressing S1P1
In short: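 Membranes (1–10 μg) from CHO cells expressing the receptor were incubated with compound in 20 mM HEPES pH 7.4, 10 mM MgCl2, 140 mM NaCl, 1.7 μM GDP, saponin and 0.2% BSA. [35S]GTPγS (added at 1.5 nM) was then bound for 60 min at 30 °C. Membrane-bound radioactivity, averaged over triplicates, is expressed relative to S1P activation (n=2).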

S1P3 receptor = S1P3 receptor (Homo sapiens, UniProt Q99500); assay: 35S-GTPγS binding, membranes from CHO cells expressing S1P3; assay type: biochemical; conditions: CHO cell membranes expressing S1P3
Experimental: Receptor binding assay: Membranes were prepared from CHO cells expressing S1P1 or S1P3 for use in ligand and 35S-GTPTS binding studies. Cells were suspended in 50 mM TRIS, pH 7.4, 2 mM EDTA, 250 mM Sucrose (buffer A) and 1× Complete protease inhibitor cocktail (Roche), and disrupted at 4° C. by nitrogen decompression using a cell disruption bomb (Parr Instrument). Following centrifugation at 1000 RPM for 10 min at 4° C., the supernatant was suspended in buffer A and centrifuged again at 19000 RPM for 60 min at 4° C. The pellet was then suspended in 10 mM HEPES, pH 7.4, 1 mM EDTA, 250 mM Sucrose (Buffer B), and 1× Complete EDTA-free protease inhibitor cocktail and homogenized using a potter. Membranes were flash frozen in liquid nitrogen and stored at −80° C. [33P]sphingosine 1-phosphate (3000 Ci/mmol; American Radiolabeled Chemicals, Inc.) was added to test compounds in DMSO. Membranes and WGA SPA beads (GE Healthcare) were added to give a final volume of 100 μl in 96-well plates with assay concentrations of […] [33P]sphingosine 1-phosphate (respectively for S1P1 or S1P3), 50 mM HEPES, pH 7.5, 5 mM MgCl2, 100 mM NaCl, 0.4% fatty acid-free BSA, 1-5 μg/well of proteins and 100 μg/well of WGA SPA beads. Binding was performed for 60 min at room temperature on a shaker and bound radioactivity was measured on a PerkinElmer 1450 MicroBeta counter. Specific binding was calculated by subtracting remaining radioactivity in the presence of 1000-fold excess of unlabeled S1P. Binding data were analyzed using the GraphPad Prism program.
Measurements of ^35S-GTPγS Binding: Membranes (1 to 10 μg protein) prepared as described above, were incubated in 96-well Scintiplates (PerkinElmer) with test compounds diluted in DMSO, in 180 μl of 20 mM HEPES, pH 7.4, 10 mM MgCl2, 2 μg/well Saponin, 0.2% fatty acid free BSA (Assay buffer), 140 mM NaCl and 1.7 μM GDP. The assay was initiated with the addition of 20 μl of 1.5 nM [35S]-GTPγS (1100 Ci/mmol; GE Healthcare) in assay buffer. After 60 min incubation at 30° C. on a shaker, plates were centrifuged for 10 min at 2000 RPM. Supernatant was discarded and membrane bound radioactivity was measured on a PerkinElmer 1450 MicroBeta counter. Triplicate samples were averaged and expressed as response relative to S1P activation in absence of compound (n=2).

Chain of S1P1 receptor (P21453 whole entry): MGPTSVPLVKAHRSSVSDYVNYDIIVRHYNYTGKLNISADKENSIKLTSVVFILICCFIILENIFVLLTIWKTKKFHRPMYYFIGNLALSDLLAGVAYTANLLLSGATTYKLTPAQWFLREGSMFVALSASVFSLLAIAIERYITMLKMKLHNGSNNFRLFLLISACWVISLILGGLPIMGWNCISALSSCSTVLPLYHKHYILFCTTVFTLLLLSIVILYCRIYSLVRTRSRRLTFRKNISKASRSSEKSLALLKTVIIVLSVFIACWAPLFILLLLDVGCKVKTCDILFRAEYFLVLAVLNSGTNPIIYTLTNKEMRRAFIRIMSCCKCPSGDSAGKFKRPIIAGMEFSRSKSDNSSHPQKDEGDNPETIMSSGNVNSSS
Chain of S1P3 receptor (Q99500 whole entry): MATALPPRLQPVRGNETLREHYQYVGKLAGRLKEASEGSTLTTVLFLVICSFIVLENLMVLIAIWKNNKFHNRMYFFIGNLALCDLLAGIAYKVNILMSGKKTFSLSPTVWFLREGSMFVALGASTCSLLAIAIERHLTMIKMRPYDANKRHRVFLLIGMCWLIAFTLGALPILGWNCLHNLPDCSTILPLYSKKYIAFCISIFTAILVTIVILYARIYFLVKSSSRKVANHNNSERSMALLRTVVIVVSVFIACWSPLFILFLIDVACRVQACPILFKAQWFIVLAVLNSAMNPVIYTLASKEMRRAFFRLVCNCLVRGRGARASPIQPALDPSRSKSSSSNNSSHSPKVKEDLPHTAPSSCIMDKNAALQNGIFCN

Structure (SMILES)	EC50 (S1P1 receptor) [nM]	EC50 (S1P3 receptor) [nM]
Fc1ccc(F)c(-c2noc(-c3nnn(-c4ccccc4F)c3-c3ccccn3)n2)c1 [Example 28, 2-[4-[3-(2,5-Difluorophenyl)-1,2,4-oxadiazole-5-yl]-1-(2-fluorophenyl)-1H-1,2,3-triazole-5-yl]pyridine]	44	7250
CCCCc1c(-c2nc(-c3ccccc3)no2)nnn1-c1ccccc1F [Example 17, 5-[5-Butyl-1-(2-fluorophenyl)-1H-1,2,3-triazole-4-yl]-3-phenyl-1,2,4-oxadiazole]	144	4900
CCc1c(-c2nc(-c3cc(F)ccc3F)no2)nnn1-c1ccccc1F [Example 7, 3-(2,5-Difluorophenyl)-5-[5-ethyl-1-(2-fluorophenyl)-1H-1,2,3-triazole-4-yl]-1,2,4-oxadiazole]		> 30000
Fc1ccccc1-n1nnc(-c2nc(-c3cccc(Cn4cncn4)c3)no2)c1-c1ccccn1 [Example 86, 2-(1-(2-fluorophenyl)-4-{3-[3-(1H-1,2,4-triazol-1-ylmethyl)phenyl]-1,2,4-oxadiazol-5-yl}-1H-1,2,3-triazol-5-yl)pyridine]	751	
COCc1c(-c2nc(-c3ccc(Cn4cccn4)cc3)no2)nnn1-c1ccccc1F [Example 173, 5-[1-(2-fluorophenyl)-5-(methoxymethyl)-1H-1,2,3-triazol-4-yl]-3-[4-(1H-pyrazol-1-ylmethyl)phenyl]-1,2,4-oxadiazole]	240	
Cc1c(-c2nc(-c3cc(F)ccc3F)no2)nnn1-c1ccccc1F [Example 2, 3-[2,5-Difluorophenyl)-5-[1-(2-fluorophenyl)-5-methyl-1H-1,2,3-triazole-4-yl]-1,2,4-oxadiazole]	1130	
Fc1ccccc1-n1nnc(-c2nc(-c3cccnc3)no2)c1-c1ccncc1 [Example 42, 3-{5-[1-(2-fluorophenyl)-5-pyridin-4-yl-1H-1,2,3-triazol-4-yl]-1,2,4-oxadiazol-3-yl}pyridine]	42	
CC(C)(C)OC(=O)NCc1ccc(-c2noc(-c3nnn(-c4ccccc4F)c3-c3ccncc3)n2)cc1 [Example 74, tert-butyl (4-{5-[1-(2-fluorophenyl)-5-pyridin-4-yl-1H-1,2,3-triazol-4-yl]-1,2,4-oxadiazol-3-yl}benzyl)carbamate]	1100	
Cc1c(-c2nc(-c3cc(F)ccc3F)no2)nnn1-c1ccccc1Br [Example 3, 5-[1-(2-Bromophenyl)-5-methyl-1H-1,2,3-triazole-4-yl]-3-(2,5-difluorophenyl)-1,2,4-oxadiazole]	2720	
CCN1CCc2ccc(-c3noc(-c4nnn(-c5ccccc5F)c4-c4ccncc4)n3)cc2C1 [Example 154, 2-ethyl-7-{5-[1-(2-fluorophenyl)-5-pyridin-4-yl-1H-1,2,3-triazol-4-yl]-1,2,4-oxadiazol-3-yl}-1,2,3,4-tetrahydroisoquinoline]	918	
COCc1c(-c2nc(-c3ccc(CN)cc3)no2)nnn1-c1ccccc1F [Example 81, 1-(4-{5-[1-(2-fluorophenyl)-5-(methoxymethyl)-1H-1,2,3-triazol-4-yl]-1,2,4-oxadiazol-3-yl}phenyl)methanamine]	236	
Fc1ccccc1-n1nnc(-c2nc(-c3cccnc3)no2)c1Cc1ccccc1 [Example 75, 3-{5-[5-benzyl-1-(2-fluorophenyl)-1H-1,2,3-triazol-4-yl]-1,2,4-oxadiazol-3-yl}pyridine]	665	
O=C(O)C1CCCN(Cc2ccc(-c3noc(-c4nnn(-c5ccccc5F)c4-c4ccncc4)n3)cc2)C1 (stereo not drawn) [Example 158, 1-(4-{5-[1-(2-fluorophenyl)-5-pyridin-4-yl-1H-1,2,3-triazol-4-yl]-1,2,4-oxadiazol-3-yl}benzyl)piperidine-3-carboxylic acid]	56	
NC(=O)C1CCN(Cc2ccc(-c3noc(-c4nnn(-c5ccccc5F)c4-c4ccncc4)n3)cc2)CC1 [Example 115, 11-(4-{5-[1-(2-fluorophenyl)-5-pyridin-4-yl-1H-1,2,3-triazol-4-yl]-1,2,4-oxadiazol-3-yl}benzyl)piperidine-4-carboxamide]	246	
Fc1ccccc1-n1nnc(-c2nc(-c3ccc(CN4CCC(F)(F)CC4)cc3)no2)c1-c1ccncc1 [Example 161]	545	
OC1CCN(Cc2cccc(-c3noc(-c4nnn(-c5ccccc5F)c4-c4ccncc4)n3)c2)C1 (stereo not drawn) [Example 134, 1-(3-{5-[1-(2-fluorophenyl)-5-pyridin-4-yl-1H-1,2,3-triazol-4-yl]-1,2,4-oxadiazol-3-yl}benzyl)pyrrolidin-3-ol]	758	
Nc1c(Cl)cc(-c2noc(-c3nnn(-c4ccccc4F)c3-c3ccncc3)n2)cc1Cl [Example 117, 2,6-dichloro-4-{5-[1-(2-fluorophenyl)-5-pyridin-4-yl-1H-1,2,3-triazol-4-yl]-1,2,4-oxadiazol-3-yl}aniline]	9	
CN(C)Cc1cccc(-c2noc(-c3nnn(-c4ccccc4F)c3-c3ccncc3)n2)c1 [Example 94, 1-(3-{5-[1-(2-fluorophenyl)-5-pyridin-4-yl-1H-1,2,3-triazol-4-yl]-1,2,4-oxadiazol-3-yl}phenyl)-N,N-dimethylmethanamine]	226	
COc1ccc(-c2noc(-c3nnn(-c4ccccc4F)c3-c3ccncc3)n2)cn1 [Example 126, 5-{5-[1-(2-fluorophenyl)-5-pyridin-4-yl-1H-1,2,3-triazol-4-yl]-1,2,4-oxadiazol-3-yl}-2-methoxypyridine]	226	
OCC1CCN(Cc2ccc(-c3noc(-c4nnn(-c5ccccc5F)c4-c4ccncc4)n3)cc2)CC1 [Example 139, [1-(4-{5-[1(2-fluorophenyl)-5-pyridin-4-yl-1H-1,2,3-triazol-4-yl]-1,2,4-oxadiazol-3-yl}benzyl)piperidin-4-yl]methanol]	118	
Fc1ccccc1-n1nnc(-c2nc(-c3ccccn3)no2)c1-c1ccncc1 [Example 45, 2-{5-[1-(2-fluorophenyl)-5-pyridin-4-yl-1H-1,2,3-triazol-4-yl]-1,2,4-oxadiazol-3-yl}pyridine]	2170	
CN(CCO)Cc1ccc(-c2noc(-c3nnn(-c4ccccc4F)c3-c3ccncc3)n2)cc1 [Example 144, 2-[(4-{5-[1-(2-fluorophenyl)-5-pyridin-4-yl-1H-1,2,3-triazol-4-yl]-1,2,4-oxadiazol-3-yl}benzyl)(methyl)amino]ethanol]	108	
COc1ccc(F)cc1-c1noc(-c2nnn(-c3ccccc3F)c2-c2ccncc2)n1 [Example 122, 4-[4-[3-(5-fluoro-2-methoxyphenyl)-1,2,4-oxadiazol-5-yl]-1-(2-fluorophenyl)-1H-1,2,3-triazol-5-yl]pyridine]	56	
O=C(O)[C@@H]1CCCN1Cc1ccc(-c2noc(-c3nnn(-c4ccccc4F)c3-c3ccncc3)n2)cc1 [Example 159, 1-(4-{5-[1(2-fluorophenyl)-5-pyridin-4-yl-1H-1,2,3-triazol-4-yl]-1,2,4-oxadiazol-3-yl}benzyl)-L-proline]	574	
Nc1ccc(-c2noc(-c3nnn(-c4ccccc4F)c3-c3ccncc3)n2)cn1 [Example 118, 5-{5-[1-(2-fluorophenyl)-5-pyridin-4-yl-1H-1,2,3-triazol-4-yl]-1,2,4-oxadiazol-3-yl}pyridin-2-amine]	131	
CS(=O)(=O)c1cccc(-c2noc(-c3nnn(-c4ccccc4F)c3-c3ccccn3)n2)c1 [Example 84, 2-(1-(2-fluorophenyl)-4-{3-[3-(methylsulfonyl)phenyl]-1,2,4-oxadiazol-5-yl}-1H-1,2,3-triazol-5-yl)pyridine]	418	
CN(C)Cc1c(-c2nc(-c3cc(F)ccc3F)no2)nnn1-c1ccccc1F [Example 91, 1-[4-[3-(2,5-difluorophenyl)-1,2,4-oxadiazol-5-yl]-1-(2-fluorophenyl)-1H-1,2,3-triazol-5-yl]-N,N-dimethylmethanamine]	443	
Fc1ccccc1-n1nnc(-c2nc(-c3ccc(Cn4ccnc4)cc3)no2)c1-c1ccncc1 [Example 170, 4-(1-(2-fluorophenyl)-4-{3-[4-(1H-imidazol-1-ylmethyl)phenyl]-1,2,4-oxadiazol-5-yl}-1H-1,2,3-triazol-5-yl)pyridine]	4	

Reference: patent publication US8202856B2 (Merck Serono SA, priority 2007, dated 2012)
